The values that follow come from US9511050B2, “Methods and compositions for treating cancer” (GEORGETOWN UNIVERSITY, priority 2013, dated 2016).

One data set relates to GBM cell lines. The data set is described as follows: Growth of GBM cell lines. The data set is classed as cell-based. The note with it: range over GBM cell lines.
The test system of data set [1] is PANC1 (a human pancreatic carcinoma). Kind of data set: IC50 activity in PANC1 cells. The data set is classed as cell-based. As for the experimental part: (§1) Compounds provided in Table 2 were prepared using methods similar to those described herein. The structures and IC50 activities of particular compounds in PANC1 (a human pancreatic carcinoma), TC32 (human ESFT cell line), and TC71 (human ESFT cell line) cells are summarized in Table 2.

The target in data set [2] is T1, EWS-FLI1 (Homo sapiens, UniProt Q01543).
T1 sequence (Q01543 220-452 limits assumed): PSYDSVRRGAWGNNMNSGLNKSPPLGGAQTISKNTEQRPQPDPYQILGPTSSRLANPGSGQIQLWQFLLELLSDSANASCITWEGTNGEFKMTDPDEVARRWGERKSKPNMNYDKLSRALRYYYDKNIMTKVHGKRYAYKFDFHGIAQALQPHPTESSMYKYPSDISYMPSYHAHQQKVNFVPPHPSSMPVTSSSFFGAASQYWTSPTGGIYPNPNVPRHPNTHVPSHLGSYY
As to conditions: read-out: affinity (KD) for EWS-FLI1; cited from earlier work.

For the next data set, the target named is T2, EWS-FLI1/RHA interaction (Homo sapiens, UniProt Q01543+Q01844).
T2 construct: endogenous in cells; host or cells: TC32
T2 sequence (Q01844+Q01543 with tags, fused parts or gaps): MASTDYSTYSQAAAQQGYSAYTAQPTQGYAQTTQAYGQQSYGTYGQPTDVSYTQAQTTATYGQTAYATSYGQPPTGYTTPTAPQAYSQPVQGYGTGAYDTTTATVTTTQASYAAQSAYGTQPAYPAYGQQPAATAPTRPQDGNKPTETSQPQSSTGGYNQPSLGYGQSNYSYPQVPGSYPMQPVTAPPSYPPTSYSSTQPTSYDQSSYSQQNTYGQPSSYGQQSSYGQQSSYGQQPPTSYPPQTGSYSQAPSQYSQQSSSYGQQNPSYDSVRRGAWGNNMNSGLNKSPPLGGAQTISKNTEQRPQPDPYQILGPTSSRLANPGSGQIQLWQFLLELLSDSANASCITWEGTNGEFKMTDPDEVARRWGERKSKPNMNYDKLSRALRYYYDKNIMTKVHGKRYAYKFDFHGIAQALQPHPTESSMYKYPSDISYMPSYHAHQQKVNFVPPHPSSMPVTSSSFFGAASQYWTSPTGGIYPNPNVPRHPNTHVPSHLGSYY
Kind of data set: Immunoblot/co-precipitation of RHA and EWS-FLI1 from treated TC32 cells. The data set is classed as cell-based. As to conditions: TC32 cell lysates.

Data set [3] can be described thus: Rat pharmacokinetics, IV injection, observation. Format: in vivo. As to conditions: rats, rapid injection; did not occur with slower infusion. The source says:
One of the significant challenges in getting novel targeted therapy into GBM is overcoming the blood-brain barrier (BBB).

The test system of the next data set is Ewing Sarcoma xenograft. The note with it: Ewing Sarcoma xenograft models; cited from earlier work.
The next data set deals with BSA (Bos taurus, UniProt P02769). Kind of data set: Surface plasmon resonance binding to non-specific protein BSA. As to conditions: SPR, read-out: affinity for BSA. For orientation: In SPR one partner is held on a chip, and binding of the other changes the refractive index at the surface.
Data set [4] deals with TC32 (human ESFT cell line). Kind of data set: IC50 activity in TC32 cells. The data set is classed as cell-based. As for the experimental part: as §1
For the next data set, the system named is ES xenografts. Kind of data set: ES xenograft tumor regression in mice. The data set is classed as in vivo. The note with it: 400 mg/kg intraperitoneal, three days, 6 total doses, tumors 300 mm^3. As for the experimental part: FIG. 13A: Mice with ES xenografts were treated with 400 mg/kg compound or controls as indicated. Starting well-established tumors (300 mm^3), mice were treated with intraperitoneal compound for three days, 6 total doses. FIG. 13B: H and E stained tumors from same experiment.
YK-4-279 upon xenograft GBM tumors is evaluated by treating animals seven days after tumor injection and those with symptomatic tumors. Early tumors are screened with Xenogen, and size correlated with MRI, and treatment started when animals 5 mm^3 lesions. YK-4-279 passes the blood-brain barrier. […] The study will measure brain tumor volumes, animal symptoms, and overall survival. At necropsy, tumors and normal adjacent brain will be evaluated by immunohistochemistry for GBM markers, apoptosis, and FLI1 regulated target genes. […] FIG. 13A: Mice with ES xenografts were treated with 400 mg/kg compound or controls as indicated. Starting well-established tumors (300 mm^3), mice were treated with intraperitoneal compound for three days, 6 total doses. FIG. 13B: H and E stained tumors from same experiment.

The test system of data set [5] is TC71 (human ESFT cell line). The data set is described as follows: IC50 activity in TC71 cells. Format: cell-based. As for the experimental part: as §1
(§2) Growth inhibition of ESFT cells was measured for various concentrations of particular compounds.

The next data set relates to ESFT cells. Kind of data set: Growth inhibition of ESFT cells. The data set is classed as cell-based. The note with it: ESFT cells growing in monolayer. As for the experimental part: as §2
For data set [6], the target named is T3, EWS-FLI1 (Homo sapiens, UniProt Q01543+Q01844).
T3 sequence (Q01543 220-452 limits assumed): T1 sequence (Q01543 220-452 limits assumed)
The note with it: enantiomer specificity; cited from earlier work.

[7] abbreviates: Homo sapiens, PANC-1, PANC1 cells.
Where [8] appears, read: Homo sapiens, TC-32, TC32 cells.
Where [9] appears, read: Homo sapiens, TC-71, TC71 cells.

Each structure is given as a SMILES string. Where two headings read alike, the source gives them in different places.

Chain of BSA (P02769 25-607): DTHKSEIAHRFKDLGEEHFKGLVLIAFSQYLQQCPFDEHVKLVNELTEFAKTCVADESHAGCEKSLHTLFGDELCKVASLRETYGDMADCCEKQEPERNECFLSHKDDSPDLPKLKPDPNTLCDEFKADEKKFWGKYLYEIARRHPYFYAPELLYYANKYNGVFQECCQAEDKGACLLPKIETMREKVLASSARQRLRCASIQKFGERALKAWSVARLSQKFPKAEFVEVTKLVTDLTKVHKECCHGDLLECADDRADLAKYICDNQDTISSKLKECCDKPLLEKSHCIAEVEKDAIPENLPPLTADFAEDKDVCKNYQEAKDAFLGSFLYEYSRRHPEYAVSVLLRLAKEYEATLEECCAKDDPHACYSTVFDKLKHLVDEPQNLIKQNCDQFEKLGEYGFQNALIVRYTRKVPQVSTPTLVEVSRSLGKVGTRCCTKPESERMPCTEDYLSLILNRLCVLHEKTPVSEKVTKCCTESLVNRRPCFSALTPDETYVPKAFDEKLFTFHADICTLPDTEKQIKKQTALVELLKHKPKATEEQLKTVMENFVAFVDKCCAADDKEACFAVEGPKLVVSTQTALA
Experimental for BSA: Steady state kinetics were measured on a Biacore T100 instrument, as previously described (Erkizan H V, Kong Y, Merchant M, Schlottmann S, Barber-Rotenberg J S, Yuan L, et al. A small molecule blocking oncogenic protein EWS-FLI1 interaction with RNA helicase A inhibits growth of Ewing's sarcoma. Nat Med. 2009 July; 15(7):750-6. PubMed PMID: 19584866. Eng; Barber-Rotenberg J S, Selvanath), SPR sensograms are not shown.
Text for GBM cell lines: Seven cell lines were selected with a spectrum of genetic abnormalities that occur in GBM. […] A panel of GBM cell lines were acquired that represent the heterogeneity of the disease.

A word on the IC50: it is the point on the concentration scale where inhibition reaches its midpoint. In the case of `COc1ccc(C(=O)CC2(O)C(=O)Nc3c(Cl)ccc(Cl)c32)cc1` (racemic) [YK-4-279], the IC50 in the data set on GBM cell lines was 0.5 to 9.9 µM; in data set [1] (setting [7]), 20 µM; in data set [1] (PANC1 cells, read-out: IC50 PANC 1), 34 µM; in [4] (setting [8]) it was 0.94 µM; in [4] (TC32 cells), 0.766 µM; in data set [5] (setting [9]), 0.918 µM. The figures for the IC50 (in data set [5] (TC71 cells); in the data set with ESFT cells) were 1.43 µM and 0.9 µM, respectively. For the same compound, the Kd on EWS-FLI1 [2] is 9.5 µM; on BSA, 122 µM. Moreover, the “interaction of RHA with EWS-FLI1” value on EWS-FLI1/RHA interaction (co-precipitation) is on record as “did disrupt their interactions”. Also, at EWS-FLI1/RHA interaction (immunoblot), the “level of EWS-FLI1 or RHA” value was “did not directly affect the level of EWS-FLI1 or RHA”. In addition, the “observation after IV injection” value in data set [3] is listed as “rats became somnolent after rapid injection”. Further, the tumor growth entry with Ewing Sarcoma xenograft is on record as “reduced tumor growth”. In the data set with ES xenografts, the tumor response result is “significant tumor regression”.

Consider `COc1ccc(C(=O)C[C@@]2(O)C(=O)Nc3c(Cl)ccc(Cl)c32)cc1` [(S)-YK-4-279], for which, in the data set on ES xenografts, the tumor response entry is on record as “significant tumor regression”. In addition, the “inhibition of functional activities of EWS-FLI1” value on EWS-FLI1 [6] was “able to inhibit the functional activities of EWS-FLI1”.

As to `COc1ccc(C(=O)CC2(OC)C(=O)Nc3c(Cl)ccc(Cl)c32)cc1` (centres unmarked) [PT-2-78], the half-maximal inhibitory concentration (IC50) in data set [1] (setting [7]), in [4] (setting [8]) and in [5] (setting [9]) was ≥ 40 µM each time.

In the case of `O=C(CC1(O)C(=O)Nc2c(Cl)ccc(Cl)c21)c1ccc(F)cc1` (centres unmarked) [YK-4-278], the IC50 in data set [1] (setting [7]), in data set [4] (setting [8]) and in data set [5] (setting [9]) was ≥ 40 µM throughout.

With `O=C(CC1(O)C(=O)Nc2c(Cl)ccc(Cl)c21)c1cccc(Cl)c1` (centres unmarked) [YK-4-281], the results for the 50% inhibitory concentration (IC50) in [1] (setting [7]), in data set [4] (setting [8]) and in [5] (setting [9]) were ≥ 40 µM, 7.22 µM and 29.6 µM, respectively.

With `O=C(CC1(O)C(=O)Nc2c(Cl)ccc(Cl)c21)c1ccc(I)cc1` (centres unmarked) [YK-4-277], the IC50 in [1] (setting [7]), in [4] (setting [8]) and in data set [5] (setting [9]) was ≥ 40 µM throughout.
